Experimental data from patent US20230293519A1, “INTEGRIN INHIBITORS AND USES THEREOF IN COMBINATION WITH OTHER AGENTS” (Pliant Therapeutics, Inc., priority 2021, published 2023).
Entries after “also recorded” stand apart in the source; their conditions may differ.

Key:
[1] = test system: bleomycin-treated mice (C57BL/6); assay: Murine bleomycin model: collagen deposition; format: in vivo, mouse
Description: Mice (C57BL/6) were divided into healthy (n=15), vehicle-treated (n=15), and test article-treated (n=15 per dose) groups. Mice in the vehicle and test article-treated groups were administered 3 U/kg of bleomycin (Teva Pharmaceuticals; North Wales, PA) via oropharyngeal aspiration while under anesthesia on day 0. Healthy animals were administered water in a similar fashion. Starting on day 7, mice in the control group were administered PBS vehicle, 130 uL, by oral gavage, BID for 14 days. Also starting on day 7, mice in the test group were administered compound 5 in PBS by oral gavage, BID for 14 days, at relative dosages of 1x, 2.5x and 5x. […] From day 14 through day 21, 9 of the 15 mice were administered ^2H2O for labeling. All mice were sacrificed on day 21 and tissues were collected. Samples were prepared for analysis either directly from lung tissue, or by bronchoalveolar lavage, which washes out the bronchiolar and alveolar space with saline to produce a bronchoalveolar lavage fluid (BALF) in which 80-90% of cells are alveolar macrophages.
FIG. 4C is a graph showing that compared to the healthy mice, lung tissue in the vehicle-treated mice experienced a substantial increase in SMAD3 phosphorylation, which is a measure of TGF-β signaling-related kinase activity. […] FIG. 4D is a graph showing that compared to the healthy mice, lung tissue in the vehicle-treated mice experienced a substantial accumulation of new collagen as evidenced by the percentage of lung collagen containing ^2H-labeled hydroxyproline.
FIGS. 4F, 4G, and 4H show high resolution second harmonic generation images of fibrillar collagen (collagen type I and III) taken from formalin-fixed paraffin embedded lung tissue sections from a healthy mouse lung (4F), a vehicle-treated mouse lung (4G) and a test-article treated mouse lung (4H; 500 mg/kg BID). Color scale is indicative of collagen fiber density (red = most dense; blue = least dense).
FIG. 4I is a graph showing the percent total collagen area in the second harmonic generation mouse lung images. […]

[2] = test system: IPF-derived human lung fibroblasts; assay: LAP adhesion assay (xCELLigence cell index), lung fibroblasts; format: cell-based; conditions: IPF-derived lung fibroblasts (express αvβ1)
Description: Two latency associated peptide (LAP) adhesion binding assays were devised using primary human lung cells, including normal (healthy) human bronchial epithelial cells and human lung fibroblasts (healthy and IPF).
Human lung fibroblasts derived from normal and IPF lung tissue are known to express αvβ1 integrin. […] In the assay, the IPF-derived human lung fibroblasts were separately incubated with: the αvβ1-selective small molecule inhibitor; the selective antibody αvβ6 inhibitor, 3G9; and compound 5.

[3] = test system: patients with idiopathic pulmonary fibrosis (IPF); assay: Phase 2a trial in IPF: FVC, QLF, biomarkers; format: in vivo, human; conditions: for proportion of patients with ≥10% decline in FVCpp: 12 weeks
Source text: The exploratory endpoints of the trial measured changes in forced vital capacity (FVC), HRCT-based Quantitative Lung Fibrosis score (QLF), and selected biomarkers over 3 months of treatment.

lung Col1a1 expression = assay: Precision cut lung slices from human IPF explants, 3 days; format: cell-based; conditions: 3G9 ≥400 ng/mL, compound 5 179 nM, ALK5 inhibitor 1 µM
Source text: Explanted lung tissue was obtained from human IPF subjects and inflated with agarose as described in the preceding examples. Biopsy cores were obtained from the agarose-inflated lung tissue. The biopsy cores were subjected to precision slicing to obtain several hundred µm thick. Individual slices were distributed in a multiwell culture plate and cultured for 3 days under control (DMSO) and test compound conditions. The viability of the slices over the course of culturing was confirmed by WST-1 assay of mitochondrial activity.

COCCN(CCCCc1ccc2c(n1)NCCC2)CC[C@H](Nc1ncnc2ccccc12)C(=O)O [Compound 5, (S)-4-((2-methoxyethyl)(4-(5,6,7,8-tetrahydro-1,8-naphthyridin-2-yl)butyl)amino)-2-(quinazolin-4-ylamino)butanoic acid]
accumulated new collagen (% of lung collagen containing 2H-labeled hydroxyproline) ([1]; 1x and 5x dose PO BID 14 days): dose-dependent reduction
percent total collagen area in second harmonic generation lung images ([1]; 1x, 2.5x, 5x dose): substantial, statistically significant dose-dependent reduction
total pulmonary collagen (µg of hydroxyproline) ([1]; 1x, 2.5x, 5x dose PO BID 14 days): reduction in total pulmonary collagen
inhibition of cell adhesion to LAP [2]: substantially inhibited
LS Mean change from baseline in FVC at week 12, not on SoC subgroup ([3]; 40 mg (N=5)): -43.1 mL
Mean Percent Change in QLF extent from baseline to Week 12 ([3]; 40 mg (N=15)): 3.15%
LS Mean change from baseline in FVC at week 12, on SoC subgroup ([3]; 40 mg (N=17)): -58.3 mL
change in FVC from baseline to Week 12 ([3]; 40 mg dose group): -46.1 mL
reduction in FVC decline relative to placebo ([3]; 40 mg dose group): 38%
proportion of patients with ≥10% decline in FVCpp ([3]; 40 mg group): 18.2%
LS Mean change from baseline in FVC at week 12, not on SoC subgroup ([3]; 80 mg (N=4)): +138.1 mL
Mean Percent Change in QLF extent from baseline to Week 12 ([3]; 80 mg (N=18)): 0.70%
LS Mean change from baseline in FVC at week 12, on SoC subgroup ([3]; 80 mg (N=19)): -11.9 mL
change in FVC from baseline to Week 12 ([3]; 80 mg dose group): +24.6 mL
proportion of patients with > 2% increase in QLF at 12 weeks ([3]; 80 mg group): 11%
proportion of patients with ≥10% decline in FVCpp ([3]; 80 mg group): 8.7%
Mean Percent Change in QLF extent from baseline to Week 12 ([3]; 160 mg (N=14)): 0.00%
LS Mean change from baseline in FVC at week 12, not on SoC subgroup ([3]; 160 mg (n=3)): +25.8 mL
LS Mean change from baseline in FVC at week 12, on SoC subgroup ([3]; 160 mg (n=19)): -47.5 mL
change in FVC from baseline to Week 12 ([3]; 160 mg dose group): -25.1 mL
reduction in FVC decline relative to placebo ([3]; 160 mg dose group): 66%
proportion of patients with a decrease in QLF (>2% change) at 12 weeks ([3]; 160 mg group): 26.7%
proportion of patients with stable QLF (-2 to 2% change) at 12 weeks ([3]; 160 mg group): 46.6%
proportion of patients with ≥10% decline in FVCpp ([3]; 160 mg group): 4.5%
serum PRO-C3 (type III collagen synthesis) change from baseline vs placebo ([3]; not significant): decreased; also recorded: reduced
serum PRO-C6 (type VI collagen synthesis) change from baseline vs placebo ([3]; not significant): decreased; also recorded: reduced
change in FVC from baseline to Week 12 ([3]; pooled Compound 5 groups): -15.1 mL
lung Col1a1 expression vs DMSO control (lung Col1a1 expression): substantial, statistically significant
